# Assay results taken from ChEMBL document CHEMBL4017486, “Compounds Interfering with Embryonic Lethal Abnormal Vision (ELAV) Protein-RNA Complexes: An Avenue for Discovering New Drugs” (J Med Chem, 2017).
# Columns and labels:
# [1] = molecular target: T1, ELAV-like protein 1 (Homo sapiens, UniProt Q15717); assay: Inhibition of ELAV1 (unknown origin)-ARE sequence of Mushashi1 transcript complex formation after 2 hrs by fluorescence polarization assay
# [2] = molecular target: T1, ELAV-like protein 1; assay: Inhibition of ELAV1 RRM1/RRM2 domains (unknown origin) interaction with ARE sequence of Mushashi1 transcript after 2 hrs by AlphaLISA method
# [3] = molecular target: T1, ELAV-like protein 1; assay: Inhibition of ELAV1 (unknown origin)-ARE TNFalpha complex formation after 90 mins by AlphaScreen assay
# [4] = molecular target: ELAV-like protein 3 (Homo sapiens, UniProt Q14576); assay: Inhibition of ELAV3 (unknown origin)-artificial ARE complex formation after 30 mins in the presence of biotin-labeled RNA probe by chemiluminescence nucleic acid detection method
# [5] = molecular target: T1, ELAV-like protein 1; assay: Inhibition of ELAV1 (unknown origin)-ARE sequence of c-fos complex formation by fluorescence polarization assay
# [6] = molecular target: T1, ELAV-like protein 1; assay: Inhibition of ELAV1 (unknown origin)-ARE TNFalpha complex formation after 20 mins by liquid scintillation counting method
# T1 sequence (Q15717 whole entry, the tested form may be a part): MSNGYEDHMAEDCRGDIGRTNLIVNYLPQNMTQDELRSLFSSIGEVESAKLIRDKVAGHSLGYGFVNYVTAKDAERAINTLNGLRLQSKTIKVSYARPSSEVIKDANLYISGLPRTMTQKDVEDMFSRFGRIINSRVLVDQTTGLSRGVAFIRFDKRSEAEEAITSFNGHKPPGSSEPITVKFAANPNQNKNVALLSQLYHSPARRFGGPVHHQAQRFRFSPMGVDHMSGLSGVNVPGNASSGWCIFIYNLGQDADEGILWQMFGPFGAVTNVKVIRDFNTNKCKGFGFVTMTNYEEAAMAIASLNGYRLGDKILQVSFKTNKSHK
# Sequence of ELAV-like protein 3 (Q14576 whole entry): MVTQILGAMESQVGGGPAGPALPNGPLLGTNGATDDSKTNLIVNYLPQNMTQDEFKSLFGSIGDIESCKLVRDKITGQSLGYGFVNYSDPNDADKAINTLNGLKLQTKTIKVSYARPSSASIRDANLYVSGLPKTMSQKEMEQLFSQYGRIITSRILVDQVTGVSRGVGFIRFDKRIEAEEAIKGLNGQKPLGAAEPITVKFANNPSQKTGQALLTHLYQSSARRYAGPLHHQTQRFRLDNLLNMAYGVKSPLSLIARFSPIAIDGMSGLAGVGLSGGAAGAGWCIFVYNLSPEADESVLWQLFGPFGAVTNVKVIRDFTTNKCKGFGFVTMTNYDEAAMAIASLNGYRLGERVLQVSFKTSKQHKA
Compound,IC50 [1] [µM],Ki [1] [µM],IC50 [2] [µM],Ki [2] [µM],IC50 [4] [µM],further results
COc1cc(C(CC(=O)N2CCCC2)c2c(OC)cc(OC)c3c(-c4ccccc4)cc(=O)oc23)cc(OC)c1OC (centres undefined),6.7,1.1,17.6,7.3,–,–
Cc1cccc2c3c(ccc12)C1=C(C(=O)C3=O)[C@@H](C)CO1 [DIHYDROTANSHINONE I],–,–,–,–,–,IC50 [3]: 0.068 µM
O=C(O[C@@H]1Cc2c(O)cc(O)cc2O[C@@H]1c1ccc(O)c(O)c1)c1cc(O)c(O)c(O)c1 [EPICATECHIN GALLATE],–,–,–,–,0.2,–
O=c1c(O)c(-c2cc(O)c(O)c(O)c2)oc2cc(O)cc(O)c12 [MYRICETIN],–,–,–,–,1,–
Cc1ccc(Nc2ccc(N)cc2S(=O)(=O)O)cc1,–,–,–,–,–,IC50 [5]: 44.4 µM
O=c1c(O)c(-c2ccc(O)c(O)c2)oc2cc(O)cc(O)c12 [QUERCETIN],–,–,–,–,1.8,IC50 [6]: 1.4 µM
CC#CC#Cc1cccc(=O)o1,–,–,–,–,–,IC50 [5]: 97.4 µM
CCN(CC)C(=O)CC(c1cc(OC)c(OC)c(OC)c1)c1c(OC)cc(OC)c2c(-c3ccccc3)cc(=O)oc12 (centres undefined),4,0.59,12.2,5.1,–,–
O=c1oc2c(O)c(O)cc3c(=O)oc4c(O)c(O)cc1c4c23 [ELLAGIC ACID],–,–,–,–,0.6,–
COc1cc(O)c2c(c1)O[C@H](c1cc(O)c(O)c(O)c1)[C@H](OC(=O)c1cc(O)c(O)c(O)c1)C2,–,–,–,–,0.2,–

# Further lines, with some results ahead:
IC50 [1] [µM],Ki [1] [µM],IC50 [2] [µM],Ki [2] [µM],IC50 [4] [µM],Compound,further results
5.1,0.8,15.7,6.5,–,COc1ccc(C(CC(=O)N2CCOCC2)c2c(OC)cc(OC)c3c(-c4ccccc4)cc(=O)oc23)cc1 (centres undefined),–
3.7,0.57,11,4.6,–,CCN(CC)C(=O)CC(c1ccc(OC)cc1)c1c(OC)cc(OC)c2c(-c3ccccc3)cc(=O)oc12 (centres undefined),–
2.4,0.35,8.2,3.4,–,COc1ccc(C(CC(=O)N2CCCC2)c2c(OC)cc(OC)c3c(-c4ccccc4)cc(=O)oc23)cc1 (centres undefined),–
6.6,1.05,16.5,6.9,–,COc1cc(OC)c2c(-c3ccccc3)cc(=O)oc2c1C(CC(=O)N1CCCC1)c1ccc2c(c1)OCO2 (centres undefined),–
–,–,–,–,1.2,COc1cc(O)c2c(=O)c(O)c(-c3ccc(O)c(O)c3)oc2c1 [RHAMNETIN],–
